One data set deals with IGROV1 CR xenografts. Briefly: Cisplatin resistant IGROV1 CR xenograft in nude mice. Format: in vivo, mouse.
A further data set deals with MCF7 xenografts. In words: MCF7 xenograft in nude mice. Format: in vivo, mouse. As for the experimental part: (§1) (A) Tumours of IGROV1 xenograft treated with vehicle or CH3 (20 or 40 mg/kg/3days intraperitoneally) for 3 weeks. Ruler scale is in centimeters. (B) Growth curves of IGROV1 xenografts. Data are represented as means ± SEM. ****p < 0.0001. (C) IHC staining against acidic nucleoplasmic DNA‐binding protein 1 (And‐1) and cleaved‐caspase3 antibodies of tumor samples from 3 groups of mice. Scale bar: 50 μm. Lower panel, quantification of And‐1and cleaved‐caspase 3 IHC score in tumors treated in A. ****p < 0.0001. (D) Tumors of MCF7 xenograft treated with vehicle or CH3 (20 or 40 mg/kg/3days intraperitoneally) for 3 weeks. Ruler scale is in centimeters. (E) Growth curves of MCF7 xenografts. Data are represented as means ± SEM. ****p < 0.0001. (F) IHC staining against And‐1 and cleaved‐caspase3 antibodies of tumor samples from three treated groups of mice. Scale bar: 50 μm. Lower panel, quantification of And‐1and cleaved‐caspase 3 IHC score in tumors treated in (D). *p < 0.1; **p < 0.01; ***p < 0.001; ****p < 0.0001
(§2) into subsequent experiment groups.
(§3) represent the longest and shortest diameters, respectively. During the drug treatment, the tumor volume
(§4) and body weight were measured. […]

The target in another data set is T1, And‐1 (Homo sapiens, UniProt O75717).
T1 construct: expressed in transfected cells
T1 sequence (O75717 1-1129): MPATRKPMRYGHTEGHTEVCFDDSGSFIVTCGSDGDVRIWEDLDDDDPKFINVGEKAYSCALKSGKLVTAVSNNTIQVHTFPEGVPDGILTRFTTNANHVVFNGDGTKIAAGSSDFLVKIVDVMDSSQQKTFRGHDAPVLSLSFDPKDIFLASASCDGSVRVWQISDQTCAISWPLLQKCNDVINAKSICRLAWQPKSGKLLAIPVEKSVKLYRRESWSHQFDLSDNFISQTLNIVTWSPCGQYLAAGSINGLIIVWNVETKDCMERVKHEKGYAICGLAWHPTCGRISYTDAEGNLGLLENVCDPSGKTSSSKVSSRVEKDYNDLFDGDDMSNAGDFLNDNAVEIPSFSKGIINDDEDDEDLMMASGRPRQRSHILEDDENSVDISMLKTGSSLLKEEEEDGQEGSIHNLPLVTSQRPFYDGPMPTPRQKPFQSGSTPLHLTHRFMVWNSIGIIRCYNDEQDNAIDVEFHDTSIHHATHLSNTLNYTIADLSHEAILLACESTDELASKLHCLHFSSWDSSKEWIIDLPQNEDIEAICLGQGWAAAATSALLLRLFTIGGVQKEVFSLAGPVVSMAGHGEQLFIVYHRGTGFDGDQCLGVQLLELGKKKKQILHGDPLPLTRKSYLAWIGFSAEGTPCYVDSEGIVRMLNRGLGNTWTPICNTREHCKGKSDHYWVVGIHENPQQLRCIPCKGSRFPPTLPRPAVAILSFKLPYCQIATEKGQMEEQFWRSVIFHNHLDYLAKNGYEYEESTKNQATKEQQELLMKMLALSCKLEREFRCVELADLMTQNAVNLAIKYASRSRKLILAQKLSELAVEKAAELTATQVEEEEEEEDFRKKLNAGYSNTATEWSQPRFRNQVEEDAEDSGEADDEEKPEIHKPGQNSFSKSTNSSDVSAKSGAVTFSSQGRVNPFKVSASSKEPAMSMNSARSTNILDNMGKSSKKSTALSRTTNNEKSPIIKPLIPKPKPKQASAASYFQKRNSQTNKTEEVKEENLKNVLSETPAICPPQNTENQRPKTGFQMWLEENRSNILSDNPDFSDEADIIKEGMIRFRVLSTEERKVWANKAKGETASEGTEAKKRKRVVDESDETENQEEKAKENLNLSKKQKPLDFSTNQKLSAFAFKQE
In words: Cellular thermal shift assay. Type of data set: binding. As to conditions: IGROV1 cells, higher temperature, compared to DMSO.

The test system of data set [1] is IGROV1 cells. Briefly: Immunofluorescence of CtIP recruitment to micro-irradiation induced DSB sites. Format: cell-based, human. The settings on record: 1 µM. The method, then: (§5) Supplementary Figure S1. Identification of novel And-1 inhibitors. […]
siAnd-1. S: S phase. (D) Immunofluorescence assay to detect CtIP and γH2AX foci formation after CH3 […]
IGROV1 cells treated with DMSO, 1 […]
to immunostain γH2AX and CtIP. For each experiment, 50 cells were counted and the percentage of cells with co-localization of γH2AX and CtIP foci was determined. Data represent means ± SEM from three independent experiments. (E) HR reporter assay to detect HR repair efficiency in cells treated with CH3. […]

Data set [2] has as its system IGROV1 CR cells. Briefly: SRB cell viability assay, combination with cisplatin. Type of data set: cell-based, human. The settings on record: by combination index (CI < 1 synergism). The method, then: The assay was as previously described.[45]
(§6) Synergy of each combination was indicated as combination index (CI) values. […] (C) Tumors of IGROV1 CR xenograft treated with control (vehicle), cisplatin (8 mg/kg/day intraperitoneally), CH3 (20 mg/kg/3days intraperitoneally), or a combination of CH3 and cisplatin for 3 weeks. Ruler scale is in centimeters. (D) Growth curves of IGROV1 CR xenografts. […] (E) IHC staining against And‐1 antibodies of tumor samples from four treated groups of mice. Scale bar: 50 μm. […] Ruler scale is in centimeters. (G) Growth curves of IGROV1 CR xenografts. […] (H) IHC staining against And‐1 antibodies of tumor samples from four treated groups of mice. Scale bar: 50 μm.

For data set [3], the system named is IGROV1 CR cells. Briefly: Clonogenic assay, combination with cisplatin. Type of data set: cell-based, human. The method, then:
as §6

Data set [4] concerns IGROV1 cells. Briefly: HR reporter assay. Type of data set: cell-based, human. As to conditions: CH3 2 µM or 4 µM. As for the experimental part: as §5
(E) HR reporter assay to detect HR repair efficiency in cells treated with CH3.
IGROV1 cells treated with DMSO, 2 µM or 4 µM of CH3 were subjected to HR reporter assay and the
percentage of GFP-positive cells was determined by flow cytometry 48 h after I-SceI plasmid transfection.
HR efficiency were normalized to those obtained from cells treated with DMSO. Data represent means ±
SEM from three independent experiments. (F) HR reporter assay to detect HR repair efficiency in cells
treated with BZA using approaches as in E.

A short description of data set [5]: Toxicity evaluation of treated mice (body weight, H&E staining of organs).
Description: To this end, we subcutaneously implanted IGROV1 or MCF7 cells into nude mice to form ovarian or breast tumors, respectively. The mice with these tumors were then treated with vehicle, 20 mg/kg or 40 mg/kg of CH3 via intraperitoneal injection.
To assess the efficacy of the combination of And‐1 inhibitors and cisplatin in vivo, we treated cisplatin resistant IGROV1 CR xenografts with vehicle, And‐1 inhibitors, cisplatin or a combination of cisplatin and And‐1 inhibitor via intraperitoneal injection.
week old female BALB/c athymic nude mice (CByJ.Cg-Foxn1nu/J, weighting 20-25g, from the Jackson
Laboratory) were inoculated subcutaneously by injecting the OC cells, cisplatin resistant OC cells or
breast cancer cells suspended in 100 µl ice-cold Matrigel/PBS (1:1, V:V; 5 x 10^6/mouse) into the dorsal
flank of each mouse. When the average tumor volume reached 100-150 mm3, the mice were randomized
into subsequent experiment groups. For tumors treated with CH3 only, CH3 was given at 0 mg/kg, 20
mg/kg and 40 mg/kg twice a week for three weeks.
were then given intraperitoneally at 8 mg/kg, 20 mg/kg and 2 mg/kg respectively twice a week for three
During the drug treatment, the tumor volume and body weight were measured.
A further data set concerns IGROV1 xenografts. In words: IGROV1 xenograft in nude mice. Type of data set: in vivo, mouse. As for the experimental part: as §1, §2, §3, §4

For the compound `OB1OCc2cc(/C=C/c3ccc(Cl)c(Cl)c3)ccc21` [CH3, (E)‐5‐(3,4‐dichlorostyryl)benzo[c][1,2]oxaborol‐1(3H)‐ol], the “expression of And‐1 in tumours (IHC)” value in the data set on IGROV1 CR xenografts is recorded as “suppressed expression of And‐1 in tumours”. For the same compound, the “resistant tumour growth, combination with cisplatin vs cisplatin alone” value in the data set with IGROV1 CR xenografts (cisplatin 8 mg/kg + CH3 20 mg/kg or BZA 2 mg/kg, intraperitoneal, 3 weeks) is “significantly reduced resistant tumour growth”. Also, the “And‐1 expression in tumor tissues (IHC)” value with MCF7 xenografts (MCF7 xenograft tumors) and with IGROV1 xenografts (IGROV1 xenograft tumors) was “inhibited And‐1 expression” in each case. Further, the “cleaved caspase‐3 expression in tumor tissues (IHC)” value in the data set with MCF7 xenografts (MCF7 xenograft tumors) and with IGROV1 xenografts (IGROV1 xenograft tumors) was “induced the expression of cleaved caspase‐3” throughout. Also, the tumor growth entry is given as “significantly reduced tumor growth” in the data set on MCF7 xenografts (breast MCF7 xenografts, nude mice, 20 mg/kg or 40 mg/kg intraperitoneal, 3 weeks) and “significantly reduced tumor growth” in the data set with IGROV1 xenografts (ovarian IGROV1 xenografts, nude mice, 20 mg/kg or 40 mg/kg intraperitoneal, 3 weeks). In addition, the “thermal stability of And‐1 protein” value on And‐1 is on record as “stabilized”. For the same compound, in the data set on IGROV1 cells [1], the “recruitment of CtIP to DSB sites induced by micro‐irradiation” value is “significantly decreased”. Moreover, the “synergy with cisplatin to inhibit cell proliferation” value with IGROV1 CR cells [2] is recorded as “significant synergy with cisplatin”. Also, the “synergy with cisplatin to reduce clonogenic capacity” value in the data set with IGROV1 CR cells [3] is “great synergy with cisplatin”. Moreover, the HR efficiency entry in the data set on IGROV1 cells [4] is “profoundly reduced HR efficiency”. Besides, the “toxicity of combination with cisplatin: body weight and organs (heart, liver, kidney, lung)” value in data set [5] (IGROV1 CR xenograft mice, cisplatin 8 mg/kg + CH3 20 mg/kg or BZA 2 mg/kg) is reported as “no obvious systemic toxicity or side effect”. Also, the “toxicity: body weight; H&E staining of heart, liver, kidney and lung” value in data set [5] (xenograft mice, CH3 20 or 40 mg/kg intraperitoneal) is “did not observe systemic toxicity or obvious side effects”.

These data come from PMC8684776, “Discovery and characterization of potent And‐1 inhibitors for cancer treatment” (Clinical and Translational Medicine, 2021).
